Reference: PMC11754779, “Mechanism of sensor kinase CitA transmembrane signaling” (Nature Communications, 2025)

What was measured:
[1] = target: T1, full length Gt CitA (Geobacillus thermodenitrificans, UniProt A4IPE6, C12A/R93A/N308C, form not given); experiment: […] NMR ATP hydrolysis assay in DMPC liposomes; type: biochemical; settings: 5 mM sodium citrate; 6 mM ATP, 10 mM MgCl2, pH 6.5, 37 C; untagged and CH2COCF3-tagged at N308C; activator
T1 construct: gene GTNG_1840; full length; vector pET16b, Ni-NTA purified, reconstituted in DMPC liposomes (C12A/R93A/N308C); pMW1652 in E. coli IMW549 for reporter assay

[2] = target: T2, CitApc (C12A/R93A CitA1-309) (Geobacillus thermodenitrificans, UniProt A4IPE6, C12A/R93A/N308C); experiment: […] CODEX with DNP, inter-dimer distance change; type: binding; settings: CH2COCF3-tagged at N308C; liposomes; 90 K
T2 construct: gene GTNG_1840; residues 1-309 (PASp, TM helices, PASc; no kinase core); E. coli C43(DE3), Ni-NTA purified; reconstituted in DMPC/DMPA liposomes; dimer

[3] = target: T3, CitApc (C12A/R93A CitA1-309) (Geobacillus thermodenitrificans, UniProt A4IPE6, C12A/R93A); experiment: 1H-detected MAS solid-state NMR chemical shifts; type: binding; settings: 5 mM sodium citrate, 20 mM sodium phosphate pH 6.5; DMPC/DMPA liposomes; 293 K
T3 construct: gene GTNG_1840; residues 1-309 (PASp, TM helices, PASc; no kinase core); E. coli C43(DE3), Ni-NTA purified; reconstituted in DMPC/DMPA liposomes; dimer

[4] = target: T4, Gt CitA PASp domain (WT) (Geobacillus thermodenitrificans, UniProt A4IPE6); experiment: X-ray crystallography, molecular replacement; type: binding; settings: 1 mM sodium citrate added; crystallised from 1 M tri-sodium citrate, 0.1 M imidazole pH 9.0
T4 construct: gene GTNG_1840; periplasmic (extracytoplasmic) PAS/PDC sensor domain; E. coli BL21(DE3); N-terminal His-tag removed with TEV protease

[5] = target: N288D mutant of the cytosolic PAS domain (PASc) of Geobacillus thermodenitrificans CitA (Geobacillus thermodenitrificans); experiment: SEC; size exclusion column, down to a concentration of 1 μM (Supplementary Fig. 8)
[6] = target: wild-type cytosolic PAS domain (PASc) of Geobacillus thermodenitrificans CitA (Geobacillus thermodenitrificans); experiment: as above

T1 sequence (A4IPE6 entry or part of it C12A/R93A/N308C, form open): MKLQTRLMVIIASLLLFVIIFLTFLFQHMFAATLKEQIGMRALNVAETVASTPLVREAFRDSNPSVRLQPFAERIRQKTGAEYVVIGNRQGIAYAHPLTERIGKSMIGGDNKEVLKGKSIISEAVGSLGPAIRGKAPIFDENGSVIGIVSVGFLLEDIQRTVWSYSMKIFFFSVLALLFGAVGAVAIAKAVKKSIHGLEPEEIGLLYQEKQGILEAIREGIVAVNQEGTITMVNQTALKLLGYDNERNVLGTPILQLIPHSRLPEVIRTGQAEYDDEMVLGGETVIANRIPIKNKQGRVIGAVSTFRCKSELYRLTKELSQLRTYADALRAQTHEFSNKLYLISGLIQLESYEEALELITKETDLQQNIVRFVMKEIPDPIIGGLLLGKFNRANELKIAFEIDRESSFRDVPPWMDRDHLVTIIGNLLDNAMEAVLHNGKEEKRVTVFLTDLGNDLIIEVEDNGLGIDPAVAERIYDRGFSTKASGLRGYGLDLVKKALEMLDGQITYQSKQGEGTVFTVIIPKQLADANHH
T3 sequence (A4IPE6 entry or part of it C12A/R93A): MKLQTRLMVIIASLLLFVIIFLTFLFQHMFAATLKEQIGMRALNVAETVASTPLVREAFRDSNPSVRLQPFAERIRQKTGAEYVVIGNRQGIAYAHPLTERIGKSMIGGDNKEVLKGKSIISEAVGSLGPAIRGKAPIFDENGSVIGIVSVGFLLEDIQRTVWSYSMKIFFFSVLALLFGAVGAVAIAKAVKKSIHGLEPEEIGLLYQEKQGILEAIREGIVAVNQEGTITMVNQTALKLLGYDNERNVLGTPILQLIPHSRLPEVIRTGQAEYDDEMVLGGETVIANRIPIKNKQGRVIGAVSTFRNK
T2 sequence (A4IPE6 entry or part of it C12A/R93A/N308C): as the sequence (A4IPE6 entry or part of it C12A/R93A) above, with N308C counted along it
T4 sequence (A4IPE6 entry or part of it): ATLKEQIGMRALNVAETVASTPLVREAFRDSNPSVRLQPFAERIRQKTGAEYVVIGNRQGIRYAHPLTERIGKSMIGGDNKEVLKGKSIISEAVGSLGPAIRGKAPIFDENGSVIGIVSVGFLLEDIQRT

O=C(O)CC(O)(CC(=O)O)C(=O)O [citrate]
31P NMR ATP hydrolysis assay in DMPC liposomes [1]: Upon citrate binding, a threefold increase in CitA’s ATP hydrolysis rate was observed
19F CODEX with DNP, inter-dimer distance change [2]: A decay in the CODEX signal to half of the reference signal was observed when citrate was bound
1H-detected MAS solid-state NMR chemical shifts [3]: also indicate changes in secondary structure upon addition of citrate
X-ray crystallography, molecular replacement [4]: Superposition of the citrate-bound Gt PASp domain structure (PDB: 8BGB

N288D mutant of the cytosolic PAS domain (PASc) of Geobacillus thermodenitrificans CitA (domain or fragment)
stoichiometry N [5]: 2

wild-type cytosolic PAS domain (PASc) of Geobacillus thermodenitrificans CitA (domain or fragment)
stoichiometry N [6]: 2
